Target: T1, human ICE (Homo sapiens, UniProt P29466)
T1 sequence (P29466 120-297 limits assumed): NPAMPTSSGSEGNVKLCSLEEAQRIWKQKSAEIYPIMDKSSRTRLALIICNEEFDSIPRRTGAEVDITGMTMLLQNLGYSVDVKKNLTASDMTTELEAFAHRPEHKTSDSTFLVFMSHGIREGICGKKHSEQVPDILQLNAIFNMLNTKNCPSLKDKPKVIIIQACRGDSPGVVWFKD
T1 sequence (P29466 317-404 limits assumed): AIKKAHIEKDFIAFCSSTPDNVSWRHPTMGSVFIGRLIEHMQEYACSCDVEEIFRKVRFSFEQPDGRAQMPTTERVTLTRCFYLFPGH
Assay: Assay for IL-1β converting enzyme
Assay type: biochemical
Conditions: human ICE solution, substrate Ac-Tyr-Val-Ala-Asp-MCA, 37° C., fluorescence
Protocol: (1) Assay for IL-1β converting enzyme
The reaction mixture contains, for example, 20 mM of HEPES-NaOH pH7.4, 10 mM of KOH, 1.5 mM of MgCl2, 0.1 mM of EDTA and 10% glycerol. Various concentrations of test compounds (50 μl), human ICE solution (50 μl) and various concentrations of substrate (Ac-Tyr-VaI-Ala-Asp-MCA) were mixed and incubated at 37° C. Fluorescence intensity was measured at […].
In the aboved example method,
HEPES is 4-(2-Hydroxyethyl)-1-piperazineethane-sulfonic acid,
EDTA is Ethylenediamine tetraacetate, and
Ac-Tyr-Val-Ala-Asp-MCA is Acetyl-L-tyrosyl-L-valyl-L-alanyl-L-asparaginic acid 4-methyl-coumarinyl-7-amide.

## CC(C)[C@H](NC(=O)CCc1ccccc1)C(=O)N[C@@H](C)C(=O)NC(CC(=O)O)C(=O)Cn1nnc(-c2c(Cl)cccc2Cl)n1 (stereo partly drawn) [Example 2(1), N-((N-(3-phenylpropionyl)-L-valyl)-L-alanyl)-3-amino-4-oxo-5-(5-(2,6-dichlorophenyl)tetrazol-2-yl)pentanoic acid]
  IC50: 30 nM

From patent US5710153A, “Tetrazole compound” (Ono Phramaceutical Co., Ltd., priority 1995, dated 1998)
